We go through four compounds from paper PMC2910439, “Imperatoxin A, a Cell-Penetrating Peptide from Scorpion Venom, as a Probe of Ca^2+-Release Channels/Ryanodine Receptors” (Pharmaceuticals, 2010).

Starred links: 1 amine or outer side, 2 acyl side, 3 side chain; linkers in the order of their positions; H or OH if unused. Positions of bridges follow the written chain, without caps; N, C: chain ends. Non-standard residues stand in square brackets, D forms with d. Residues, ends and D or L forms follow the SMILES beside them. *: point of attachment. X1 = CC1CC(C)(C)Nc2c1cc1c(c2S(=O)(=O)O)Oc2c(S(=O)(=O)O)c3c(cc2=C1c1c(Cl)c(SCC(=O)*)c(Cl)c(Cl)c1C(=O)O)C(C)CC(C)(C)N=3; X2 = N=C(CCCSC1CC(=O)N(CCCCCN[*:1])C1=O)NCC(=O)[*:2] A value given as a limit tells only on which side of the number the result lay.

For data set [1], the system named is intact mouse ventricular myocytes. In kind it is cell-based. As to conditions: for speed of penetration into living isolated cardiomyocytes: conclusion, native toxin judged by [Ca2+]i transients, derivative by fluorescence. As for the experimental part:
To visualize the cell-penetrating properties of Alexa-IpTxa in intact cells, ventricular cardiomyocytes were enzymatically isolated and incubated with 5 μM Alexa-IpTxa and Alexa 488-Wheat Germ Agglutinin (10 μg/mL) for 30 min at room temperature (see Experimental Methods). The distribution of Alexa-546-IpTxa (red fluorescence) and WAG-Alexa-488 (green fluorescence) were monitored in living, unfixed cardiac myocytes.
We next sought to establish a time-course for the translocation of Alexa-IpTxa across the plasma membrane of intact cardiomyocytes. […] Clear intracellular localization of fluorescence is seen only with Alexa-IpTxa, as early as 10 min after incubation (panel D), but more intensely after 20 min incubation (panel F). In order to refine the time-course of Alexa-IpTxa penetration into cardiomyocytes, we continuously monitored the evolution of fluorescence in 3 regions of interest (ROI) corresponding to the plasma membrane and adjacent cytosol (ROI-1), the bulk cytosol (ROI-2), and the nucleus (ROI-3). A fourth ROI (not shown) was defined to monitor changes in fluorescence of the bath solution. Animations of IpTxa translocation into cells are available online as supplementary data (URL: http://www.mdpi.com/1424-8247/3/4/1093/S1).
Isolated cardiac myocytes were incubated with Alexa-546-IpTxa (5 μM) with or without WGA-Alexa 488 (10 μg/mL) for 30 min in the dark. Images were acquired with a BioRad MR-1 confocal microscope coupled to a Nikon Disphot microscope and an X60 oil immersion objective using the Lasersharp 2000 software. Confocal images are 0.25 μm sections. All experiments were performed at room temperature.
Ventricular myocytes were imaged with a Zeiss META 5 confocal microscope equipped with laser scanning. Three regions of interest were delineated corresponding to the plasma membrane (ROI-1), […]. Changes in fluorescence intensity in these regions were monitored and analyzed. Alexa-546-IpTxa fluorescence was excited with the 488 nm line of an argon laser, and emitted light was filtered by a LP 585 filter. Alexa-546-IpTxa was perfused at a concentration of 1 μM. Scans were taken every 3 seconds for a total of 351 seconds. After the time series, perfusion was turned off and the cell remained in the bath for 30 minutes. Scans were taken at 9 minutes and 30 minutes.

The subject of data set [2] is intact mouse ventricular cardiomyocytes. The data set can be described thus: Ca2+ imaging of field-stimulated ventricular myocytes perfused with toxin. It counts as cell-based. As for the experimental part:
IpTxa’s ability to induce subconducting states in single channels and to enhance binding of [^3H]ryanodine to SR vesicles distinguish it as a RyR agonist. […] Ventricular cardiomyocytes were enzymatically digested, loaded with the Ca^2+ indicator Fluo-3, and placed into the perfusion chamber of a Zeiss confocal microscope (see Experimental Methods). Cells were field-stimulated under Normal Tyrode (NT) solution, and Ca^2+ transients were recorded in line-scan mode (control). Perfusion was then changed to NT + IpTxa (in the range of 100 nM-30 µM), and transients were recorded in the presence of toxin (+IpTxa). We hypothesized that if IpTxa penetrates cardiomyocytes to reach its intracellular target, it would alter the shape of [Ca^2+]i transients elicited with field-stimulation. As expected, changes in [Ca^2+]i transients were evident within seconds of perfusion with the toxin. […] For this experiment, cells were paced at 0.5 Hz under NT solution (see Experimental Methods). Cells were scanned first without IpTxa (control transients, Figure 1A), and then IpTxa was perfused and a second scan was taken immediately afterward (Figure 1B).
Mouse ventricular myocytes were isolated by collagenase digestion of perfused mouse hearts using the method of Mitra and Morad with modification addressed by Wolska and Solaro [23]. Mice were heparinized and anesthetized […] before removal and hanging of the heart. Cells were suspended in Tyrode solution ((mM) 130 NaCl, 5.4 KCl, 0.4 NaH2PO4, 0.5 MgCl2, 25 HEPES, 22 glucose, 0.01 μg/mL insulin, pH7.4 with NaOH) and kept at room temperature until used within 6 h.
Changes in cytosolic [Ca^2+] using the Ca^2+-dependent fluorescent dye Fluo-3 AM. Fluo-3 AM was added to ventricular myocytes in Tyrodes solution (final concentration 10 μM) and incubated at room temperature for 30 minutes, after which the cells were washed and resuspended in Tyrodes solution. Fluorescence changes were monitored with a Zeiss META 5 line-scanning confocal microscope. Fluo-3 was excited at 488nm, and emissions were collected at 500-570 nm. Cells were perfused with normal Tyrodes and field-stimulated at 1 Hz. After recording control transients, synthetic, unmodified IpTxa was perfused at concentrations of 10 μM, 1 μM, and 100 nM for 10 seconds. To estimate the calcium load of the sarcoplasmic reticulum, we stopped stimulations and performed a rapid application of 10 mM caffeine to elicit complete Ca^2+ release.

Data set [3] concerns isolated rat ventricular myocytes. The conditions noted are these: 0.5 mM; followed by steady decline to a new lower steady-state; cited from earlier work. As to the method: At lower concentrations (100-300 nM), IpTxa perfusion elicited several discernible stimulatory effects in most cells.

For the compound `CC(C)C[C@@H]1NC(=O)[C@H](Cc2c[nH]cn2)NC(=O)[C@@H]2CCCN2C(=O)[C@H](CC(C)C)NC(=O)[C@@H](NC(=O)[C@H](CC(=O)O)NC(=O)CNC(=N)CCCSC2CC(=O)N(CCCCCNC(=O)CSc3c(Cl)c(Cl)c(C(=O)O)c(C4=c5cc6c(c(S(=O)(=O)O)c5Oc5c4cc4c(c5S(=O)(=O)O)NC(C)(C)CC4C)=NC(C)(C)CC6C)c3Cl)C2=O)CSSC[C@@H]2NC(=O)[C@@H]3CSSC[C@@H](C(=O)N[C@@H](CCCNC(=N)N)C(=O)O)NC(=O)[C@H](CCCNC(=N)N)NC(=O)[C@H](CCCCN)NC(=O)[C@H](CCC(=O)O)NC(=O)[C@H](C)NC(=O)[C@H](CC(N)=O)NC(=O)[C@H]([C@@H](C)O)NC(=O)CNC(=O)[C@H](CCCNC(=N)N)NC(=O)[C@H](CCCNC(=N)N)NC(=O)[C@H](CCCCN)NC(=O)[C@H](CSSC[C@H](NC(=O)[C@H](CCCNC(=N)N)NC(=O)[C@H](CCCCN)NC1=O)C(=O)N[C@@H](CCCCN)C(=O)N[C@@H](C)C(=O)N[C@@H](CC(=O)O)C(=O)N[C@@H](CC(N)=O)C(=O)N[C@@H](CC(=O)O)C(=O)N3)NC(=O)[C@H](CCCCN)NC(=O)[C@H](CCCCN)NC(=O)CNC2=O` (stereo partly drawn) [Alexa-IpTxa] (X1-[X2]DCLPHLKRCKADNDCCGKKCKRRGTNAEKRCR-OH; disulfide 3-17, 10-21, 16-32; C-terminus assumed), the “time at which clear intracellular localization of fluorescence is seen” value in data set [1] (1 μM perfusion, confocal, more intense at later time) is reported as no more than 10 min. For the same compound, the “speed of penetration into living isolated cardiomyocytes” value in data set [1] is reported as “slower (minutes)”.

On to `CC1CC(C)(C)Nc2c1cc1c(c2S(=O)(=O)O)Oc2c(S(=O)(=O)O)c3c(cc2=C1c1c(Cl)c(SCC(=O)NCCCCCN2C(=O)C=CC2=O)c(Cl)c(Cl)c1C(=O)O)C(C)CC(C)(C)N=3` (stereo not drawn) [Alexa-maleimide, Alexa-Fluor-546-C5-maleimide, reference compound], for which, in data set [1] (as stated for the fluorophore reagent), the “membrane permeability (negative control)” value is “membrane-impermeable”.

In the case of `CC(C)C[C@@H]1NC(=O)[C@H](Cc2c[nH]cn2)NC(=O)[C@@H]2CCCN2C(=O)[C@H](CC(C)C)NC(=O)[C@@H](NC(=O)[C@H](CC(=O)O)NC(=O)CN)CSSC[C@@H]2NC(=O)[C@@H]3CSSC[C@@H](C(=O)N[C@@H](CCCNC(=N)N)C(=O)O)NC(=O)[C@H](CCCNC(=N)N)NC(=O)[C@H](CCCCN)NC(=O)[C@H](CCC(=O)O)NC(=O)[C@H](C)NC(=O)[C@H](CC(N)=O)NC(=O)[C@H]([C@@H](C)O)NC(=O)CNC(=O)[C@H](CCCNC(=N)N)NC(=O)[C@H](CCCNC(=N)N)NC(=O)[C@H](CCCCN)NC(=O)[C@H](CSSC[C@H](NC(=O)[C@H](CCCNC(=N)N)NC(=O)[C@H](CCCCN)NC1=O)C(=O)N[C@@H](CCCCN)C(=O)N[C@@H](C)C(=O)N[C@@H](CC(=O)O)C(=O)N[C@@H](CC(N)=O)C(=O)N[C@@H](CC(=O)O)C(=O)N3)NC(=O)[C@H](CCCCN)NC(=O)[C@H](CCCCN)NC(=O)CNC2=O` [IpTxa, imperatoxin A] (H-GDCLPHLKRCKADNDCCGKKCKRRGTNAEKRCR-OH; disulfide 3-17, 10-21, 16-32 (inferred); N-terminus and C-terminus assumed), the “effect on diastolic [Ca2+]i” value in data set [2] (100 nM to 3 µM perfused, in some cells) was “elevated diastolic [Ca^2+]i”. Also, the “effect on [Ca2+]i transients at high concentration” value in data set [2] (30 µM perfused in normal Tyrode, cells paced at 0.5 Hz, Fluo indicator, line-scan confocal, representative of three of four experiments) was “complete cessation of [Ca^2+]i transients”. Also, the “effect on [Ca2+]i transient amplitude at lower concentrations” value in data set [2] (100-300 nM perfused, followed by gradual diminution to a new, lower steady-state, representative of 12 of 36 experiments) was “significant increase in the amplitude of the [Ca^2+]i transient”. The “lag time of effects on intracellular Ca2+ signaling after perfusion” value in data set [2] (perfusion on intact cells) fell in the range of 2 to 3 s. Further, the “speed of penetration into living isolated cardiomyocytes” value in data set [1] is given as “rapid (few seconds)”.

Take `Cn1c(=O)c2c(ncn2C)n(C)c1=O` [caffeine]: in data set [3], the “effect on Ca2+ transient amplitude” value is listed as “brief increase in the amplitude of the Ca^2+ transient”.
